Measured values published in DBAASP.
≈ marks a conversion by molar mass, not a printed value. Values belong to the compound of their own block, whether it stands above or below them.

What was measured:
Assay in all cases: ≥ marks a high value that may be exact or a test limit, other limits are often not marked, values filed in µg/mL are converted to µM
[1] = tested on: Bacillus subtilis ATCC 23857
[2] = tested on: Enterococcus faecalis ATCC 29212
Escherichia coli K-12 = tested on: Escherichia coli K-12
[3] = tested on: Pseudomonas aeruginosa 2760
[4] = tested on: Acinetobacter baumannii ATCC 19606
[5] = tested on: Staphylococcus aureus ATCC 25923
Acinetobacter baumannii = tested on: Acinetobacter baumannii
Escherichia coli 780 = tested on: Escherichia coli 780
Escherichia coli 850 = tested on: Escherichia coli 850
[6] = tested on: Staphylococcus aureus 936
[7] = tested on: Pseudomonas aeruginosa ATCC 27853
[8] = tested on: Staphylococcus aureus 725
[9] = tested on: Klebsiella pneumoniae ATCC 700603
Bacillus subtilis 168 = tested on: Bacillus subtilis 168
[10] = tested on: Escherichia coli ATCC 25922
[11] = tested on: Staphylococcus aureus RN4220
[12] = tested on: Saccharomyces cerevisiae BY4741
Candida albicans CA14 = tested on: Candida albicans CA14
Escherichia coli IP76-24 = tested on: Escherichia coli IP76-24
[13] = tested on: Cryptococcus neoformans IP960-67
[14] = tested on: Staphylococcus aureus IP76-25
[15] = tested on: Aspergillus niger IP218-53
[16] = tested on: Enterococcus faecalis IP103214
[17] = tested on: Aeromonas caviae IP67-16T
[18] = tested on: Nocardia brasiliensis IP16-80
[19] = tested on: Trichophyton simii IP1063-74
[20] = tested on: Saccharomyces cerevisiae IP118079
[21] = tested on: Candida albicans IP884-65
[22] = tested on: Aspergillus fumigatus IP1025-70

MIC [1]: 3.67 µM (≈ 8 µg/mL)
MIC [2]: 14.7 µM (≈ 32 µg/mL)
MIC (Escherichia coli K-12): 10 µM (≈ 21.8 µg/mL)
MIC [3]: 7.33 µM (≈ 16 µg/mL)
MIC [4]: 3.67 µM (≈ 8 µg/mL)
MIC [5]: 7.33 µM (≈ 16 µg/mL)
MIC (Acinetobacter baumannii): 3.67 µM (≈ 8 µg/mL)
MIC (Escherichia coli 780): 7.33 µM (≈ 16 µg/mL)
MIC (Escherichia coli 850): 7.33 µM (≈ 16 µg/mL)
MIC [6]: 7.33 µM (≈ 16 µg/mL)
MIC [7]: 14.7 µM (≈ 32 µg/mL)
MIC [8]: 7.33 µM (≈ 16 µg/mL)
MIC [9]: 14.7 µM (≈ 32 µg/mL)
MIC (Bacillus subtilis 168): 10 µM (≈ 21.8 µg/mL)
MIC [10]: 7.33 µM (≈ 16 µg/mL)
MIC [11]: 4 µM (≈ 8.73 µg/mL)
MIC [12]: 8 µM (≈ 17.5 µg/mL)
MIC (Candida albicans CA14): 4 µM (≈ 8.73 µg/mL)
Structure (SMILES): CC[C@H](C)[C@H](NC(=O)[C@H](CCCCN)NC(=O)[C@H](CCCCN)NC(=O)[C@H](C)NC(=O)[C@H](CC(C)C)NC(=O)[C@H](C)NC(=O)[C@H](C)NC(=O)[C@H](CC(C)C)NC(=O)[C@H](C)NC(=O)[C@H](CCCCN)NC(=O)[C@H](CC(C)C)NC(=O)[C@H](CC(N)=O)NC(=O)[C@@H](NC(=O)[C@H](CCCCN)NC(=O)CNC(=O)[C@H](CC(C)C)NC(=O)[C@H](CC(C)C)NC(=O)[C@H](Cc1ccc(O)cc1)NC(=O)CNC(=O)[C@H](C)N)[C@@H](C)CC)C(=O)N[C@@H](CC(C)C)C(=O)O [AGYLLGKINLKALAALAKKIL]

MIC (Escherichia coli IP76-24): 14 µM (≈ 16.4 µg/mL)
MIC [13]: 25 µM (≈ 29.3 µg/mL)
MIC [14]: ≥ 150 µM
MIC [15]: ≥ 150 µM
MIC [16]: 7 µM (≈ 8.21 µg/mL)
MIC [17]: 7 µM (≈ 8.21 µg/mL)
MIC [18]: ≥ 150 µM
MIC [19]: ≥ 150 µM
MIC [20]: ≥ 50 µM
MIC [21]: ≥ 150 µM
MIC [22]: ≥ 150 µM
Structure (SMILES): CC[C@H](C)[C@H](NC(=O)CNC(=O)[C@H](CCCCN)NC(=O)[C@H](CC(C)C)NC(=O)[C@H](CCSC)NC(=O)[C@H](CC(N)=O)NC(=O)[C@H](CCCCN)NC(=O)[C@H](Cc1c[nH]c2ccccc12)NC(=O)[C@H](CC(C)C)NC(=O)[C@H](C)N)C(N)=O [ALWKNMLKGI]
